Details: 50 ppm of sulfuric acid added to pressure-sterilized physiological salt solution (salt concentration 0.9 wt %)

O=S(=O)(O)O [sulfuric acid]
pH of the liquid: 3.2

— patent US7090780B2, “Bactericide for use in water treatment, method for water treatment and apparatus for water treatment” (Toray Industries, Inc., priority 2001, dated 2006)
